Patent US20250179033A1 (priority 2021, published 2025)
Read-outs that look alike come from different tables or passages of the source.

Assays:
Type in all cases: cell-based
[1] = test system: TZM-bl cells; test: Toxicity assay in TZM-bl cells
Protocol: (§1) Compounds were serially diluted starting with 10 mM stocks in DMSO. DMSO concentrations were kept the same for all dilutions used within an assay (either 0.005% or 0.05% depending on highest concentration used). Duplicate 96-well plates were set up with 25 μL compound dilution, 25 μL virus, and 50 μL TZM-bl cells (2×10^5/mL) with DEAE-dextran and incubated at 37° C. 5% CO2 for 48 hr. All compounds were tested in triplicate, with single wells of efavirenz dilutions on each plate. All plates had 3-5 control wells without compound, 1 control well with no cells, and 1 control well with a highly toxic level of DMSO (9%). Inhibition assays were set up in clear tissue-culture treated plates with lysates moved to black assay plates or were set up in black tissue culture-treated plates. Medium was removed and the cells were lysed with Glo Lysis Buffer (Promega, Madison, Wisconsin, United States of America). Luciferase Assay System reagent (Promega, Madison, Wisconsin, United States of America) was added to cells and relative light units (RLU) was measured using an EnSpire instrument (PerkinElmer, Waltham, Massachusetts, United States of America). Toxicity assays were set up in clear tissue culture-treated plates. CellTiter-Blue Cell Viability Assay reagent (Promega) was added to the wells after 46 hr incubation, followed by 2 hr incubation. Sodium lauryl sulfate was added to 1.5% to stop the reaction and the plates were measured for fluorescence (560 nmEx/590 nmEm) using an EnSpire instrument (PerkinElmer, Waltham, Massachusetts, United States of America).

[2] = test system: HIV-1 IIIB (wild-type); test: HIV inhibition assay in TZM-bl cells, wild-type; conditions: Human immunodeficiency virus 1, IIIB, read-out: IC50 (TZM, WT)
Protocol: (§2) Cells and virus culture: TZM-bl cells (42), HIV-1 IIIB virus (43-45) and HIV-1 IIIB (A17 variant) virus (46) as well are the NNRTI resistant mutants (strain NL4-3) (47) were obtained from the NIH HIV Reagent Program. H9 [derivative of HuT 78]cells (ATCC® HTB176™) were obtained from the American Type Culture Collection (Manassas, Virginia, United States of America). These viruses were grown in H9 cells to high titer, which was tested using a HIV p24 (high sensitivity) The detection kit used was sold under the tradename ALPHALISA® Detection Kit (PerkinElmer, Waltham, Massachusetts, United States of America). The viruses were concentrated using Lenti-X Concentrator (Takara Bio USA, Inc., Mountain View, California, United States of America). Infections of TZM-bl cells with either virus was facilitated with 15 μg/mL DEAE-dextran.
as §1

[3] = test system: HIV-1 IIIB A17 variant (Y181C/K103N); test: HIV inhibition assay in TZM-bl cells, A17 variant; conditions: Human immunodeficiency virus 1, IIIB, TZM-bl, read-out: IC50 (TZM, A17), Table 3, TZM-bl, ± SEM, minimum 6 replicates
Protocol: as §2, §1

[4] = Table 3, TZM-bl, ± SEM, minimum 6 replicates

SMILES | Qualitative Cell Toxicity within inhibition range [1] | IC50 [2, 4] [nM] | IC50 [3] [nM] | Qualitative Cell Toxicity within inhibition range ([1]; Table 3, TZM-bl) | IC50 [2] [nM]
N#Cc1ccc(Nc2nc(N)n(S(=O)(=O)c3ccc(C(F)(F)F)nc3)n2)c(Cl)c1 [Compound 45, 4-[[5-amino-1-[[6-(trifluoromethyl)-3-pyridyl]sulfonyl]-1,2,4-triazol-3-yl]amino]-3-chloro-benzonitrile] | None | 36.1 ± 8.67 | > 1000 | – | –
N#Cc1ccc(Nc2nc(N)n(S(=O)(=O)c3cccc(C#N)c3)n2)cc1 [Compound 9, 3-[[5-amino-3-(4-cyanoanilino)-1,2,4-triazol-1-yl]sulfonyl]benzonitrile] | None | 105 ± 24.3 | 709 ± 331 | – | –
N#Cc1ccc(Nc2nc(N)n(S(=O)(=O)c3ccc4ccccc4c3)n2)cc1Cl [Compound 3, 4-[[5-amino-1-(2-naphthylsulfonyl)-1,2,4-triazol-3-yl]amino]-2-chloro-benzonitrile] | – | – | 573 ± 130 | None | 1.57 ± 0.19
CC(=O)Nc1nc(C)c(S(=O)(=O)n2nc(Nc3cc(Cl)c(Cl)cc3Cl)nc2N)s1 [Compound 44, N-[5-[[5-amino-3-(2,4,5-trichloroanilino)-1,2,4-triazol-1-yl]sulfonyl]-4-methyl-thiazol-2-yl]acetamide] | None | 165 ± 121 | > 1000 | – | –
Cc1cc(C#N)ccc1Nc1nc(N)n(S(=O)(=O)c2cccc3cc(C#N)ccc23)n1 [Compound 4, 5-[[5-amino-3-(4-cyano-2-methyl-anilino)-1,2,4-triazol-1-yl]sulfonyl]naphthalene-2-carbonitrile] | None | 13.8 ± 2.64 | 287 ± 69.5 | – | –
Nc1nc(Nc2ccc(Cl)cc2)nn1S(=O)(=O)c1cccc2nonc12 [Compound 37, 1-(2,1,3-benzoxadiazol-4-ylsulfonyl)-N3-(4-chlorophenyl)-1,2,4-triazole-3,5-diamine] | None | 10.2 ± 1.46 | > 1000 | – | –
N#Cc1ccc(Nc2nc(N)n(S(=O)(=O)c3c(Cl)nc4sccn34)n2)cc1 [Compound 8, 4-[[5-amino-1-(6-chloroimidazo[2,1-b]thiazol-5-yl)sulfonyl-1,2,4-triazol-3-yl]amino]-benzonitrile] | None | 1.77 ± 0.327 | 705 ± 1010 | – | –
Nc1nc(Nc2ccc(Cl)cc2)nn1S(=O)(=O)c1ccc(Br)s1 [Compound 40, 1-[(5-bromo-2-thienyl)sulfonyl]-N3-(4-chlorophenyl)-1,2,4-triazole-3,5-diamine] | None | 15.1 ± 3.12 | > 1000 | – | –
Cc1nc(-c2ccc(S(=O)(=O)n3nc(Nc4ccc(C#N)cc4)nc3N)s2)cs1 [Compound 52] | None | 2.14 ± 0.812 | > 1000 | – | –
Nc1nc(Nc2ccc(Cl)cc2)nn1S(=O)(=O)c1cc(Cl)sc1Cl [Compound 41, N3-(4-chlorophenyl)-1-[(2,5-dichloro-3-thienyl)sulfonyl]-1,2,4-triazole-3,5-diamine] | None | 10.1 ± 1.69 | 3680 ± 10900 | – | –
Nc1nc(Nc2ccc(Cl)cc2)nn1S(=O)(=O)c1ccc2cc(Cl)ccc2c1 [Compound 25, 1-[(6-chloro-2-naphthyl)sulfonyl]-N3-(4-chlorophenyl)-1,2,4-triazole-3,5-diamine] | None | 4.54 ± 0.33 | – | – | –
N#Cc1cccc(S(=O)(=O)n2nc(Nc3c(Cl)cc(Cl)cc3Cl)nc2N)c1 [Compound 43, 3-[[5-amino-3-(2,4,6-trichloroanilino)-1,2,4-triazol-1-yl]sulfonyl]benzonitrile] | None | 33.7 ± 9.93 | > 1000 | – | –
N#CCc1ccc2c(S(=O)(=O)n3nc(Nc4ccc(C#N)c(Cl)c4)nc3N)cccc2c1 [Compound 16, 4-[[5-amino-1-[[6-(cyanomethyl)-1-naphthyl]sulfonyl]-1,2,4-triazol-3-yl]amino]-2-chloro-benzonitrile] | – | – | 153 ± 59.2 | None | 0.598 ± 0.105
Cc1nc(C)c(S(=O)(=O)n2nc(Nc3ccc(Cl)cc3)nc2N)s1 [Compound 36, N3-(4-chlorophenyl)-1-(2,4-dimethylthiazol-5-yl)sulfonyl-1,2,4-triazole-3,5-diamine] | None | 44.1 ± 12.8 | > 1000 | – | –
Nc1nc(Nc2ccc(Cl)cc2)nn1S(=O)(=O)c1ccc(F)c(F)c1F [Compound 39, N3-(4-chlorophenyl)-1-(2,3,4-trifluorophenyl)sulfonyl-1,2,4-triazole-3,5-diamine] | None | 575 ± 104 | > 1000 | – | –
C=CC(=O)N(C)c1ccc(S(=O)(=O)n2nc(Nc3ccc(C#N)cc3)nc2N)cc1 [Compound 24, N-[4-[[5-amino-3-(4-cyanoanilino)-1,2,4-triazol-1-yl]sulfonyl]phenyl]-N-methyl-prop-2-enamide] | None | 7.88 ± 0.643 | – | – | –
CC(=O)N1CCc2cc(S(=O)(=O)n3nc(Nc4ccc(Cl)cc4)nc3N)ccc21 [Compound 34, 1-[5-[[5-amino-3-(4-chloroanilino)-1,2,4-triazol-1-yl]sulfonyl]indolin-1-yl]ethanone] | None | 92.6 ± 15.5 | – | – | –
Cc1nn(C)c(Cl)c1S(=O)(=O)n1nc(Nc2ccc(C#N)c(Cl)c2)nc1N [Compound 17, 4-[[5-amino-1-(5-chloro-1,3-dimethyl-pyrazol-4-yl)sulfonyl-1,2,4-triazol-3-yl]amino]-2-chloro-benzonitrile] | – | – | 905 ± 392 | None | 0.305 ± 0.053
CN(C)c1cccc2c(S(=O)(=O)n3nc(Nc4ccc(Cl)cc4)nc3N)cccc12 [Compound 23, N3-(4-chlorophenyl)-1-[[5-(dimethylamino)-1-naphthyl]sulfonyl]-1,2,4-triazole-3,5-diamine] | None | 10.3 ± 2.01 | > 1000 | – | –
N#Cc1ccc(Nc2nc(N)n(S(=O)(=O)c3c(Cl)nc4sccn34)n2)cc1Cl [Compound 11, 4-[[5-amino-1-(6-chloroimidazo[2,1-b]thiazol-5-yl)sulfonyl-1,2,4-triazol-3-yl]amino]-2-chloro-benzonitrile] | – | – | 175 ± 178 | Low | 0.98 ± 0.245
Nc1nc(Nc2ccc(Cl)cc2)nn1S(=O)(=O)c1ccc(-c2ccc(F)cc2)cc1 [Compound 30, N3-(4-chlorophenyl)-1-[4-(4-fluorophenyl)phenyl]sulfonyl-1,2,4-triazole-3,5-diamine] | None | 21.5 ± 4.42 | – | – | –
Cn1cnc(S(=O)(=O)n2nc(Nc3ccc(Cl)cc3)nc2N)c1 [Compound 28, N3-(4-chlorophenyl)-1-(1-methylimidazol-4-yl)sulfonyl-1,2,4-triazole-3,5-diamine] | None | 83.7 ± 19.3 | – | – | –
C=CC(=O)Nc1cc(C)c(S(=O)(=O)n2nc(Nc3ccc(Cl)cc3)nc2N)c(C)c1 [Compound 26, N-[4-[[5-amino-3-(4-chloroanilino)-1,2,4-triazol-1-yl]sulfonyl]-3,5-dimethyl-phenyl]prop-2-enamide] | None | 5.78 ± 0.476 | – | – | –
Nc1nc(Nc2ccc(Cl)cc2)nn1S(=O)(=O)c1cnc(Cl)c(Br)c1 [Compound 29, 1-[(5-bromo-6-chloro-3-pyridyl)sulfonyl]-N3-(4-chlorophenyl)-1,2,4-triazole-3,5-diamine] | None | 14.3 ± 7.27 | – | – | –
Nc1nc(Nc2ccc(Cl)cc2)nn1S(=O)(=O)CCN1C(=O)c2ccccc2C1=O [Compound 35, 2-[2-[[5-amino-3-(4-chloroanilino)-1,2,4-triazol-1-yl]sulfonyl]ethyl]isoindoline-1,3-dione] | None | 14.3 ± 7.27 | – | – | –
Cc1cc(C)c(Nc2nc(N)n(S(=O)(=O)c3ccc(Br)c(C)c3)n2)c(C)c1 [Compound 31, 1-(4-bromo-3-methyl-phenyl)sulfonyl-N3-(2,4,6-trimethylphenyl)-1,2,4-triazole-3,5-diamine] | None | 19.4 ± 3.67 | – | – | –
